Patent publication US10202364B2, “Forms and compositions of an ERK inhibitor” (Celgene CAR LLC, priority 2014, dated 2019)
Where two headings read alike, the source gives them in different places. Blank lines part the entries; values can stand above or below the molecule they belong to.

What was measured:
[1] = Solubility in water at ambient temperature; assay type: physicochemical; conditions: for pH at 48 hrs: pH of the solubility sample in water at 48 hrs; for Conc. (μg/mL) at 24 hours / Conc. (μg/mL) at 48 hours: water, ambient temperature, free base-equivalent value, HPLC/UV; for Conc. (μg/mL) at 24 hours: shaken 24 hours; for Conc. (μg/mL) at 48 hours: shaken 48 hours
Protocol: Each of compounds 1 through 9 were weighed into separate 8 mL clear glass vials. After addition of 3.2 mL of water, the vials were capped and shaken on an orbital shaker at 300 RPM at ambient temperature for 24 hours. The samples were removed from the shaker and the pH of each was measured using a calibrated pH meter. Next, a portion of the each sample was withdrawn and filtered using a PVDF-membrane syringe filter. The filtrate was analyzed using HPLC/UV with appropriate dilution. The solubility was reported as free base-equivalent value because the free base was used as the standard for HPLC analysis. The rest of the samples were shaken for another 24 hours for 48-hour solubility measurement using the same procedure. After the 48-hour solubility tests were run, the solid residues were recovered through filtration using 0.2 μm Nylon-membrane centrifuge tube filters at 14000 RPM for 5 min and analyzed using XRPD.
For the bis-phosphate complex and bis-sulfate salt, measurements were only performed at the 24-hour time point.

[2] = Single oral dose pharmacokinetic (PK) study in dogs, fasted and fed; assay type: in vivo; conditions: 15 mg/kg oral suspension; for AUC(0-t) / Cmax: both sexes, dog, in vivo, po, 15 mg/kg
Protocol: The pharmacokinetics of compound 1 (free base, administered to dosing group 1), compound 2 (phosphate salt, administered to dosing group 4), compound 4 (hydrochloride salt, administered to dosing group 2), compound 5 (bromide salt, administered to dosing group 5), and compound 6 (sulfate salt, administered to dosing group 3) were evaluated in dogs (2/sex/group) in a parallel design study. In addition, the effect of food on the systemic exposure to compounds 1, 2, 4, 5 and 6 was also evaluated. Compounds 1, 2, 4, 5 and 6 were orally administered at 15 mg/kg to dogs in a fasted state (overnight fast) on day 1 and administered under fed conditions (a meal was provided one hour prior to dosing) on day 9. Doses were administered as a suspension in 5% Captisol/0.2% Tween 80/0.05M Citrate buffer (compound 1) and 5% Captisol/0.2% Tween (compounds 2, 4, 5 and 6). Animals were habituated (days 2 to 8) to consume their entire daily ration (˜400 g) in 1 hour. Pharmacokinetic samples were collected on days 1 and 9 at 0, 0.5, 1, 2, 4, 6, 8, 12, and 24 hours after dosing.

[3] = Free base competitive slurries / form conversion (XRPD and DSC); assay type: physicochemical; conditions: compound 1 free base, stirred in methanol at room temperature for 24 hours
Protocol: Free Base Competitive Slurries:
Three competitive slurry experiments were performed:
1: Form A (20.0 mg)+Form C (20.4 mg) in 0.4 ml ethyl acetate
2: Form B (15.7 mg)+Form C (15.6 mg) in 0.3 ml ethyl acetate
3: Form A (13.3 mg)+Form B (11.5 mg) in 0.3 ml ethyl acetate
The three slurries were stirred vigorously for three days. Solids were then filtered and dried.
About 20 mg Form C was stirred in methanol (˜2 mL) at room temperature for 24 hours. Solids were filtered and dried.

[4] = tested on: one or both of ERK1 and ERK2 kinases; conditions: see Table A of the '230 publication; cited from earlier work
[5] = Hygroscopicity by Dynamic Vapor Sorption (DVS); assay type: physicochemical; conditions: at 95% relative humidity
Protocol: Hygroscopicity was determined on a Surface Measurement Systems DVS-1 or DVS-Advantage Dynamic Vapor Sorption analyzer. A typical sample size of 5 to 20 mg was loaded into the DVS instrument sample pan and the sample was analyzed on a DVS automated sorption analyzer at room temperature. The relative humidity (RH) was increased from 0 or 5% to 90 or 95% RH at 5 or 10% RH steps. The RH was then decreased in a similar manner to accomplish a full absorption/desorption cycle. In some cases a second absorption/desorption cycle was performed.

[6] = Phosphate interconversions from polymorph screen (slurries, XRPD); assay type: physicochemical; conditions: RT, 5 days
Description: Phosphate Interconversions

[7] = fasted, day 1, mean, read-out: AUClast, Day 1 (Fasted)
[8] = fasted, day 1, mean, read-out: Cmax, Day 1 (Fasted)
[9] = fed, day 9, mean, read-out: AUClast, Day 9 (Fed)
[10] = fed, day 9, mean, read-out: Cmax, Day 9 (Fed)

Compound: C=CC(=O)Nc1cc(C)ccc1Nc1nc(Nc2cc(OC)ncc2C)ncc1C(F)(F)F.Cc1ccc(S(=O)(=O)O)cc1 [Compound 8]
pH at 48 hrs [1]: 2.00
Conc. (μg/mL) at 24 hours [1]: 218.34 µg/mL
Conc. (μg/mL) at 48 hours [1]: 184.83 µg/mL

Compound: C=CC(=O)Nc1cc(C)ccc1Nc1nc(Nc2cc(OC)ncc2C)ncc1C(F)(F)F.O=P(O)(O)O [Compound 2, Form A]
AUC(0-t) [2, 7]: 1080 ng·h/mL
Cmax [2, 8]: 0.345 µg/mL
AUC(0-t) [2, 9]: 3880 ng·h/mL
Cmax [2, 10]: 0.79 µg/mL
water uptake [5]: Up to 3.8%

Compound: Br.C=CC(=O)Nc1cc(C)ccc1Nc1nc(Nc2cc(OC)ncc2C)ncc1C(F)(F)F [Compound 5]
pH at 48 hrs [1]: 2.27
Conc. (μg/mL) at 24 hours [1]: 190.63 µg/mL
Conc. (μg/mL) at 48 hours [1]: 207.42 µg/mL

Compound: C=CC(=O)Nc1cc(C)ccc1Nc1nc(Nc2cc(OC)ncc2C)ncc1C(F)(F)F.O=P(O)(O)O [Form B]
XRPD Result ([6]; slurry in EtOH): Form A + free base
XRPD Result ([6]; slurry in MeCN): Form A
XRPD Result ([6]; slurry in MeCN/water (1:1)): free base (Form D)
XRPD Result ([6]; slurry in MeOH): free base (Form B)
XRPD Result ([6]; slurry in acetone): Form A

Compound: C=CC(=O)Nc1cc(C)ccc1Nc1nc(Nc2cc(OC)ncc2C)ncc1C(F)(F)F.O=P(O)(O)O [Compound 2]
pH at 48 hrs [1]: 2.48
Conc. (μg/mL) at 24 hours [1]: 19.40 µg/mL
Conc. (μg/mL) at 48 hours [1]: 91.69 µg/mL

Compound: C=CC(=O)Nc1cc(C)ccc1Nc1nc(Nc2cc(OC)ncc2C)ncc1C(F)(F)F.O=S(=O)(O)c1ccccc1 [Compound 9]
pH at 48 hrs [1]: 2.10
Conc. (μg/mL) at 24 hours [1]: 173.63 µg/mL
Conc. (μg/mL) at 48 hours [1]: 143.49 µg/mL

The next lines start with results.

AUClast, Day 1 (Fasted) ([2]; fasted, day 1, mean): 286 ng·h/mL
Cmax, Day 1 (Fasted) ([2]; fasted, day 1, mean): 0.0981 µg/mL
AUClast, Day 9 (Fed) ([2]; fed, day 9, mean): 1890 ng·h/mL
Cmax, Day 9 (Fed) ([2]; fed, day 9, mean): 0.293 µg/mL
form after slurry (XRPD and DSC) [3]: converted to Form B
Compound: C=CC(=O)Nc1cc(C)ccc1Nc1nc(Nc2cc(OC)ncc2C)ncc1C(F)(F)F [Compound 1, Form C, N-(2-((2-((2-methoxy-5-methylpyridin-4-yl)amino)-5-(trifluoromethyl)pyrimidin-4-yl)amino)-5-methylphenyl)acrylamide]

pH at 48 hrs [1]: 2.29
Conc. (μg/mL) at 24 hours [1]: 162.33 µg/mL
Conc. (μg/mL) at 48 hours [1]: 134.08 µg/mL
Compound: C=CC(=O)Nc1cc(C)ccc1Nc1nc(Nc2cc(OC)ncc2C)ncc1C(F)(F)F.Cl [Compound 4]

pH at 48 hrs [1]: 6.33
Conc. (μg/mL) at 24 hours [1]: 0.07 µg/mL
Conc. (μg/mL) at 48 hours [1]: 0.05 µg/mL
Compound: C=CC(=O)Nc1cc(C)ccc1Nc1nc(Nc2cc(OC)ncc2C)ncc1C(F)(F)F [Compound 1, N-(2-((2-((2-methoxy-5-methylpyridin-4-yl)amino)-5-(trifluoromethyl)pyrimidin-4-yl)amino)-5-methylphenyl)acrylamide]
inhibition of one or both of ERK1 and ERK2 kinases [4]: covalent, irreversible inhibition

AUC(0-t) [2, 7]: 856 ng·h/mL
Cmax [2, 8]: 0.323 µg/mL
AUC(0-t) [2, 9]: 3350 ng·h/mL
Cmax [2, 10]: 0.818 µg/mL
Compound: C=CC(=O)Nc1cc(C)ccc1Nc1nc(Nc2cc(OC)ncc2C)ncc1C(F)(F)F.Cl [Compound 4, Form A]

Conc. (μg/mL) at 24 hours [1]: 1170 µg/mL
Compound: C=CC(=O)Nc1cc(C)ccc1Nc1nc(Nc2cc(OC)ncc2C)ncc1C(F)(F)F [Compound 7]

AUC(0-t) [2, 7]: 1680 ng·h/mL
Cmax [2, 8]: 0.393 µg/mL
AUC(0-t) [2, 9]: 5030 ng·h/mL
Cmax [2, 10]: 0.826 µg/mL
Compound: Br.C=CC(=O)Nc1cc(C)ccc1Nc1nc(Nc2cc(OC)ncc2C)ncc1C(F)(F)F [Compound 5, Form A]

Conc. (μg/mL) at 24 hours [1]: 113 µg/mL
Compound: C=CC(=O)Nc1cc(C)ccc1Nc1nc(Nc2cc(OC)ncc2C)ncc1C(F)(F)F [Compound 3]

AUClast, Day 1 (Fasted) ([2]; fasted, day 1, mean): 1120 ng·h/mL
Cmax, Day 1 (Fasted) ([2]; fasted, day 1, mean): 0.364 µg/mL
AUClast, Day 9 (Fed) ([2]; fed, day 9, mean): 5590 ng·h/mL
Cmax, Day 9 (Fed) ([2]; fed, day 9, mean): 0.74 µg/mL
Compound: C=CC(=O)Nc1cc(C)ccc1Nc1nc(Nc2cc(OC)ncc2C)ncc1C(F)(F)F [Compound 6, Form A]

pH at 48 hrs [1]: 1.98
Conc. (μg/mL) at 24 hours [1]: 560.02 µg/mL
Conc. (μg/mL) at 48 hours [1]: 409.83 µg/mL
Compound: C=CC(=O)Nc1cc(C)ccc1Nc1nc(Nc2cc(OC)ncc2C)ncc1C(F)(F)F [Compound 6]
